The values that follow come from patent US20050136444A1 (priority 2003, published 2005).

The structures appear in SMILES notation. Where a name gives a salt, the structure may show the parent alone. Read-outs that look alike come from different tables or passages of the source.

The target in one test is T1, NPFF2 (Homo sapiens, UniProt Q9Y5X5).
T1 construct: expressed in transfected cells; host or cells: NIH3T3
The test can be described thus: Receptor Selection and Amplification Technology (R-SAT) functional assay, NPFF2. The class given is cell-based. As to conditions: Table 1; for Emax: Efficacy is relative to endogenous ligand, read-out: NPFF2 % Efficacy; for EC50 / NPFF2 pEC50: NA = No activity detectable at the highest dose tested (20 μM). The protocol: (§1) Briefly, NIH3T3 cells were grown in 96 well tissue culture plates to 70-80% confluence. Cells were transfected for 16-20 h h with plasmid DNAs using Polyfect (Qiagen Inc.) as per manufacturer's protocols. R-SAT's were generally performed with 40 ng/well of receptor and 20 ng/well of β-galactosidase plasmid DNA. All receptor and G-protein constructs used were in the pSI-derived mammalian expression vector (Promega Inc) as described previously. […] For large-scale transfections, cells were transfected for 16-20 h, then trypsinized and frozen in DMSO. Frozen cells were later thawed, plated at ˜20,000 cells per well of a 96 half-area well plate that contained drug. With both methods, cells were then grown in a humidified atmosphere with 5% ambient CO2 for five days. Media was then removed from the plates and marker gene activity was measured by the addition of the β-galactosidase substrate o-nitrophenyl β-D-galactopyranoside (ONPG, in PBS with 0.5% NP-40). The resulting colorimetric reaction was measured in a spectrophotometric plate reader (Titertek Inc.) at 420 nm. All data were analyzed using the computer program XLFit (IDBSm).
(§2) R-SAT assay was conducted as set forth in […]

The target of the next test is NPFF1 (Homo sapiens, UniProt Q9GZQ6). The test can be described thus: Receptor Selection and Amplification Technology (R-SAT) functional assay, NPFF1. Conditions: R-SAT, Table 1; for Emax: Efficacy is relative to endogenous ligand, read-out: NPFF1 % Efficacy; for EC50: NA = No activity detectable at the highest dose tested (20 μM), read-out: NPFF1 pEC50 (converted). On the set-up: expressed in transfected cells; host or cells: NIH3T3. The class given is cell-based. On the procedure:
as §1, §2

Setting [1] is: R-SAT, read-out: NPFF2 pEC50 (converted).

T1 sequence (Q9Y5X5 103-522): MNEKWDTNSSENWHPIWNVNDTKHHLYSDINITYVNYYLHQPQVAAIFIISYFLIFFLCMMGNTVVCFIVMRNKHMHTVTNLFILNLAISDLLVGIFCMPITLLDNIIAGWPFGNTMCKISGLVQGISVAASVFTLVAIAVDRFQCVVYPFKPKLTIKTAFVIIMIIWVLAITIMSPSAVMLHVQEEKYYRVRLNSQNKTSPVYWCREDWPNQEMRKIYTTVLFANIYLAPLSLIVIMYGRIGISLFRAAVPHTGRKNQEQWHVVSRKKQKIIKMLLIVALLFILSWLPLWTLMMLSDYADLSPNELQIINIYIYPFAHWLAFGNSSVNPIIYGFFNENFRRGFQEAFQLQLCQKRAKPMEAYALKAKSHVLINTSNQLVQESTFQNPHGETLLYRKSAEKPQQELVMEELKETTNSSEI
Sequence of NPFF1 (Q9GZQ6 whole entry, species assumed): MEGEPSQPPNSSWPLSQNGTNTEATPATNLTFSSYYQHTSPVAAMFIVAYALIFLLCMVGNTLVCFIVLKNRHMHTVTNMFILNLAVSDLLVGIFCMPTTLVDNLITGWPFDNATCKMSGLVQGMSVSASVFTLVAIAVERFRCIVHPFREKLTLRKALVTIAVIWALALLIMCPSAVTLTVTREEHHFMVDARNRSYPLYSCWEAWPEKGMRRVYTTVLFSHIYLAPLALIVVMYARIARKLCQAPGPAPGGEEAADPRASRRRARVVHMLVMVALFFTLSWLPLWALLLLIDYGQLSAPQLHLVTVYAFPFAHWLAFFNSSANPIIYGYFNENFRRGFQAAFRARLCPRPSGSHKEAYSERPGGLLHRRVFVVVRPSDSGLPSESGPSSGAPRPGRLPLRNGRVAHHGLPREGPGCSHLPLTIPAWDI

In the case of `COc1ccc(OC)c(C(C)=NNC(=N)N)c1` (mixture of isomers) [Compound 3029, 1-[1-(2,5-Dimethoxyphenyl)ethylideneamino]guanidine Hydrochloride], the Emax at NPFF2 (R-SAT) was 32%; on NPFF1, -1%. At NPFF2 (setting [1]), the EC50 was 5010 nM.

Consider `COc1ccc(C(C)=NNC(=N)N)c(O)c1` (mixture of isomers) [Compound 3030, 1-[1-(2-Hydroxy-4-methoxyphenyl)ethylideneamino]guanidine Hydrochloride], for which the results for the Emax at NPFF2 (R-SAT) and at NPFF1 were 22% and 7%, respectively. Besides, the EC50 on NPFF2 (setting [1]) was 6310 nM.

Regarding `CCCCC(=NNC(=N)N)c1ccc(N(C)C)cc1` (mixture of isomers) [Compound 3035, 1-[1-(4-Dimethylaminophenyl)pentylideneamino]guanidine], the Emax on NPFF2 (R-SAT) was found to be 69%; on NPFF1, 81%. Besides, the values for the EC50 at NPFF2 (setting [1]) and on NPFF1 were 2000 nM and 3160 nM, respectively.

For the compound `CCCCC/C(=N/NC(=N)N)c1cccc(C)c1` [Compound 1001], the Emax at NPFF2 (R-SAT) worked out at 49%.

As for `CCCCC/C(=N\NC(=N)N)c1ccc(C)cc1` [Compound 1002], on NPFF2 (R-SAT), the Emax was 41% and the “NPFF2 pEC50” value is 6.2.

Turning to `CCCC/C(=N\NC(=N)N)c1ccc(O)cc1` [Compound 1004], the Emax on NPFF2 (R-SAT) is 106%.

With `COc1ccc(/C=N/NC(=N)N)cc1I` [Compound 1005], at NPFF2 (R-SAT), the Emax was found to be 70% and the “NPFF2 pEC50” value is given as 5.5.

As for `C/C(=N\NC(=N)N)c1cc(Br)ccc1Br` [Compound 1006], the Emax on NPFF2 (R-SAT) was 53%.

With `N=C(N)N/N=C/c1ccc(Br)cc1` [Compound 1007], the Emax at NPFF2 (R-SAT) was determined as 102%.

On to `C/C(=N\NC(=N)N)c1ccccc1` [Compound 1010], for which, at NPFF2 (R-SAT), the Emax was 51% and the “NPFF2 pEC50” value is listed as 5.2.

With `CN(C)c1ccc(/C=N/NC(=N)N)cc1[N+](=O)[O-]` [Compound 1012], at NPFF2 (R-SAT), the Emax was determined as 51% and the “NPFF2 pEC50” value was 5.2.

In the case of `COc1ccc(/C=N/NC(=N)N)cc1` [Compound 1014], at NPFF2 (R-SAT), the Emax amounted to 97% and the “NPFF2 pEC50” value turned out to be 5.0.

On to `N=C(N)NN=Cc1cccc(C(F)(F)F)c1` [Compound 2002, 1-[3-(Trifluoromethyl)benzylideneamino]guanidine Hydrochloride], for which, on NPFF2 (R-SAT), the Emax was determined as 39%. The EC50 at NPFF2 (setting [1]) is 2510 nM.

As for `CC(=NNC(=N)N)c1cccc(Br)c1` [Compound 2003, 1-[1-(3-Bromophenyl)ethylideneamino]guanidine Hydrochloride], at NPFF2 (R-SAT), the Emax is 49%. In addition, at NPFF2 (setting [1]), the EC50 was 1580 nM.

On to `N=C(N)NN=Cc1cc(F)ccc1[N+](=O)[O-]` [Compound 2004, 1-(5-Fluoro-2-nitrobenzylideneamino)guanidine Hydrochloride], for which, on NPFF2 (R-SAT), the Emax is 38%. Besides, on NPFF2 (setting [1]), the EC50 was 10000 nM.

For the compound `N=C(N)NN=Cc1c2ccccc2cc2ccccc12` [Compound 2006, 1-[(Anthracen-9-yl)methylideneamino]guanidine Hydrochloride], the Emax at NPFF2 (R-SAT) stood at 51%. Besides, at NPFF2 (setting [1]), the EC50 is 794 nM.

Take `COc1cc(C=NNC(=N)N)cc(OC)c1` [Compound 2007, 1-(3,5-Dimethoxybenzylideneamino)guanidine Hydrochloride]: the Emax on NPFF2 (R-SAT) was 29%; at NPFF1, 5%. Further, at NPFF2 (setting [1]), the EC50 was 3160 nM.

Take `COc1ccc(C=NNC(=N)N)cc1F` [Compound 2009, 1-(3-Fluoro-4-methoxybenzylideneamino)guanidine Hydrochloride]: the Emax amounted to 54% on NPFF2 (R-SAT) and 9% on NPFF1. The EC50 on NPFF2 (setting [1]) is 7940 nM.

For `N=C(N)NN=Cc1ccc(F)c(Br)c1` [Compound 2010, 1-(3-Bromo-4-fluorobenzylideneamino)guanidine Hydrochloride], the Emax on NPFF2 (R-SAT) turned out to be 53%; at NPFF1 it was 7%. For the same compound, at NPFF2 (setting [1]), the EC50 is 1260 nM.

Turning to `Cc1cc(C=NNC(=N)N)ccc1F` [Compound 2012, 1-(4-Fluoro-3-methylbenzylideneamino)guanidine Hydrochloride], the Emax on NPFF2 (R-SAT) amounted to 56%; on NPFF1, 9%. In addition, on NPFF2 (setting [1]), the EC50 was 1580 nM.

`N=C(N)NN=Cc1ccc(F)c(Cl)c1` [Compound 2013, 1-(3-Chloro-4-fluorobenzylideneamino)guanidine Hydrochloride]: the Emax at NPFF2 (R-SAT) came out at 34%; on NPFF1, 4%. Further, the EC50 on NPFF2 (setting [1]) is 794 nM.

In the case of `COc1ccc(C=NNC(=N)N)cc1Br` [Compound 2014, 1-(3-Bromo-4-methoxybenzylideneamino)guanidine Hydrochloride], the results for the Emax on NPFF2 (R-SAT) and at NPFF1 were 35% and 8%, respectively. The EC50 at NPFF2 (setting [1]) was 2000 nM.

In the case of `N=C(N)NN=Cc1ccc(Br)cc1F` [Compound 2018, 1-(4-Bromo-2-fluorobenzylideneamino)guanidine Hydrochloride], the Emax at NPFF2 (R-SAT) came to 53%; on NPFF1, 13%. Further, on NPFF2 (setting [1]), the EC50 is 3160 nM.

Regarding `N=C(N)NN=Cc1ccc(Oc2ccccc2)cc1` [Compound 2020, 1-(4-Phenoxybenzylideneamino)guanidine Hydrochloride], the Emax on NPFF2 (R-SAT) was 31%; at NPFF1, 24%. Also, the EC50 was 501 nM on NPFF2 (setting [1]) and 1260 nM on NPFF1.

In the case of `CC(C)Oc1ccc(C=NNC(=N)N)cc1` [Compound 2025, 1-(4-Isopropoxybenzylideneamino)guanidine], the results for the Emax on NPFF2 (R-SAT) and at NPFF1 were 87% and 51%, respectively. The EC50 at NPFF2 (setting [1]) and at NPFF1 was 3980 nM each time.

Regarding `CCOc1ccc(C=NNC(=N)N)cc1OCC` [Compound 2026, 1-(3,4-Diethoxybenzylideneamino)guanidine], the Emax on NPFF2 (R-SAT) turned out to be 58%; on NPFF1 it was 9%. Further, on NPFF2 (setting [1]), the EC50 was 7940 nM.

`N=C(N)NN=Cc1ccc2c(c1)Cc1ccccc1-2` [Compound 2028, Hydrochloride]: the EC50 at NPFF2 (NPFF2 pEC50, R-SAT) is 1260 nM; on NPFF1, 1580 nM. For the same compound, the Emax worked out at 68% at NPFF2 (R-SAT) and 37% at NPFF1.

With `N=C(N)NN=Cc1ccc(Cl)c(F)c1` [Compound 2030, 1-(4-Chloro-3-fluorobenzylideneamino)guanidine Hydrochloride], the Emax on NPFF2 (R-SAT) is 62%; at NPFF1, 6%. The EC50 on NPFF2 (setting [1]) was 2510 nM.

Turning to `N=C(N)NN=Cc1ccc(O)c(Cl)c1` [Compound 2031, 1-(3-Chloro-4-hydroxybenzylideneamino)guanidine Hydrochloride], the results for the Emax on NPFF2 (R-SAT) and on NPFF1 were 16% and 1%, respectively.

Take `Cc1cc(C=NNC(=N)N)cc(C)c1O` [Compound 2033, 1-(3,5-Dimethyl-4-hydroxybenzylideneamino)guanidine Hydrochloride]: the values for the Emax at NPFF2 (R-SAT) and on NPFF1 were 33% and 7%, respectively. The EC50 on NPFF2 (setting [1]) is 10000 nM.

Take `COc1ccc(C=NNC(=N)N)c(C)c1C` [Compound 2034, 1-(4-Methoxy-2,3-dimethylbenzylideneamino)guanidine Hydrochloride]: the figures for the Emax on NPFF2 (R-SAT) and at NPFF1 were 105% and 26%, respectively. The EC50 was 2510 nM on NPFF2 (setting [1]) and 3980 nM at NPFF1.

Regarding `NC(N)=NN=Cc1ccc(Cl)c(C(F)(F)F)c1` [Compound 2035, 1-[4-Chloro-3-(trifluoromethyl)benzylideneamino]guanidine Hydrochloride], the Emax on NPFF2 (R-SAT) turned out to be 114%; at NPFF1, 45%. Further, the EC50 on NPFF1 was 3980 nM.

For the compound `N=C(N)NN=Cc1ccc2c(c1)OCCCO2` [Compound 2038, 1-[3,4-Dihydro-2H-benzo[b][1,4]dioxepin-7-yl)methylideneamino]guanidine Hydrochloride], the Emax amounted to 77% at NPFF2 (R-SAT) and 9% at NPFF1. For the same compound, the EC50 at NPFF2 (setting [1]) was 3980 nM.

As for `CC(=NNC(=N)N)c1ccc2c(c1)OCCO2` [Compound 2040, 1-[1-(2,3-Dihydro-benzo[1,4]dioxin-6-yl)ethylideneamino]guanidine Hydrochloride], the values for the Emax at NPFF2 (R-SAT) and on NPFF1 were 65% and 18%, respectively. The EC50 at NPFF2 (setting [1]) was 7940 nM.

For the compound `C=CCOc1ccc(C=NNC(=N)N)cc1Cl` [Compound 2042, 1-(4-Allyloxy-3-chlorobenzylideneamino)guanidine Hydrochloride], the Emax at NPFF2 (R-SAT) is 60%. On NPFF2 (setting [1]), the EC50 is 794 nM.

Consider `COc1ccc(C=NNC(=N)N)cc1Cl` [Compound 2043, 1-(3-Chloro-4-methoxybenzylideneamino)guanidine Hydrochloride], for which, on NPFF2 (R-SAT), the Emax is 47%. For the same compound, on NPFF2 (setting [1]), the EC50 is 2000 nM.

As for `N#CCCCCOc1ccc(C=NNC(=N)N)cc1Cl` [Compound 2044, 1-[3-Chloro-4-(4-cyanobutoxy)benzylideneamino]guanidine Hydrochloride], at NPFF2 (R-SAT), the Emax was determined as 45%. In addition, the EC50 on NPFF2 (setting [1]) is 3980 nM.
